# US20260199297A1, “FERROPTOSIS INDUCERS TO TREAT CANCER” (The University of Toledo, priority 2022, published 2026)
# Read-outs that look alike come from different tables or passages of the source.
# Columns and labels:
# [1] = test system: protein bands between 25 kD to 38 kD; experiment: Competitive binding assay against probe PPd (in-gel fluorescence); conditions: 20 μM concentration; bands 25 kD to 38 kD
# NCI-H522 cells = experiment: Cytotoxicity (methylene blue cell viability), NCI-H522; format: cell-based, human; conditions: for IC50: Homo sapiens
# Description: (§1) Having synthesized the CETZOLE analogs, their cytotoxic activity was evaluated. […] NCI-H522 RV-GFP is the corresponding control with RV-GFP tag, but without SLC7A11 overexpression. […] The cytotoxicity screening was conducted as described previously.
# (§2) Cell lines were cultured in a humidified atmosphere containing 10% CO2 in Dulbecco's modified Eagle's medium (Mediatech, Inc) supplemented with 10% fetal bovine serum (Atlanta Biologicals). Cell types used MEFs, HT1080 (human fibrosarcoma cells), NARF2 (osteosarcoma), WI-38 (human embryonic lung fibroblast), MDA MB 231 (breast cancer), HCT-116 (human colon), and NCI-H522 (Non-Small Cell Lung Cancer) cell lines. To determine viability throughout these examples, 5,000 cells were plated per well of a 96-well plate and drugs were added 1 day later. Cells were stained 1 to 3 days later with a saturated solution of methylene blue in 50% ethanol. Plates were rinsed and retained dye was quantified by spectrophotometry. Absorbance was normalized to DMSO and given as 1 or 100% for cell viability. Results are representative of at least two independent experiments. Statistical significance was assessed using the Student's t test. All commercially available chemicals were obtained from Cayman Chemicals unless otherwise noted.
# HT-1080 cells = experiment: Cytotoxicity (methylene blue cell viability), HT-1080; format: cell-based, human; conditions: Homo sapiens
# Description: as §1, §2
# MDA-MB-231 cells = experiment: Cytotoxicity (methylene blue cell viability), MDA-MB-231; format: cell-based; conditions: Homo sapiens
# Description: as §1, §2
# [2] = test system: NCI-H522 GFP-SLC7A11 #8 cells; experiment: Cytotoxicity (methylene blue cell viability), NCI-H522 clone overexpressing GFP-SLC7A11; format: cell-based, human; conditions: Homo sapiens; Table 1; NCI-H522 clone overexpressing GFP-tagged SLC7A11; read-out: Half maximal inhibitory concentration (IC50), NCI-H522 GFP-SCL7A11 #8
# Description: as §1, §2
# NCI-H522 RV-GFP cells = experiment: Cytotoxicity (methylene blue cell viability), NCI-H522 RV-GFP control clone; format: cell-based, human; conditions: Homo sapiens, NCI-H522; Table 1; control clone with RV-GFP tag; read-out: Half maximal inhibitory concentration (IC50), NCI-H522 Rv-GFP
# Description: as §1, §2
# NARF2 cells = experiment: Cytotoxicity (methylene blue cell viability), NARF2; format: cell-based, human; conditions: Homo sapiens; Table 1; NARF2 osteosarcoma cells; read-out: Half maximal inhibitory concentration (IC50), NARF2
# Description: as §1, §2
# [3] = test system: NCI-H522, NCI-H522 GFP-SLC7A11 #8, NCI-H522 RV-GFP, HT-1080, NARF2 and MDA-MB 231 cell lines; experiment: Cytotoxicity screening across the tested cell lines; format: cell-based; conditions: summary over all tested cell lines; read-out: IC50 values against the tested cell lines
# Description: as §1, §2
# WI38 cells = experiment: Cytotoxicity on normal cell line WI38; format: cell-based, human; conditions: Homo sapiens, WI-38; Table 2; lung tissue fibroblast; read-out: Half maximal inhibitory concentration (IC50), Normal Cell Line WI38
# Description: (§3) To determine cytotoxicity at a therapeutically more relevant concentration, cells were treated at a single concentration of […] (FIG. 12).
# as §2
# [4] = test system: MEFs (Mouse Embryonic Fibroblasts); experiment: Cytotoxicity on normal cell line MEFs; format: cell-based; conditions: Fibroblast; Table 2; Mouse Embryonic Fibroblasts; read-out: Half maximal inhibitory concentration (IC50), Normal Cell Line Mefs
# Description: as §3, §2
# [5] = test system: NCI-H522 and HT-1080 cancer cell lines, WI38 and MEFs normal cell lines; experiment: Selective cytotoxicity assay at a single concentration; format: cell-based; set-up: dose or concentration left out as unconfirmed; conditions: NCI-H522, HT-1080, WI38, MEFs
# Description: Overall, WI38 cells were the most tolerant to the treatment, whereas MEF cells were partially tolerant and relatively less sensitive than both NCI-H522 and HT-1080 cells. To determine cytotoxicity at a therapeutically more relevant concentration, cells were treated at a single concentration of […] (FIG. 12).
# as §2, with “noted. Compound CETZOLE 1 and the analogs were synthesized as highlighted.” for “noted.”
# [6] = NCI-H522, Table 3, probes and negative controls, read-out: IC50, NCI-H522
# [7] = HT-1080, Table 3, probes and negative controls, read-out: IC50, HT-1080
# [8] = MDA-MB-231, Table 3, probes and negative controls, read-out: IC50, MDA-MB-231
# [9] = Table 1, NCI-H522 cancer cell line, read-out: Half maximal inhibitory concentration (IC50), NCI-H522
# [10] = Table 1, HT-1080 fibrosarcoma cell line, read-out: Half maximal inhibitory concentration (IC50), HT-1080
# [11] = Table 1, MDA-MB-231 breast cancer cell line, read-out: Half maximal inhibitory concentration (IC50), MDA-MB-231
# [12] = NCI-H522, Table 2, read-out: Half maximal inhibitory concentration (IC50), Cancer Cell Line NCI-H522
# [13] = HT-1080, Table 2, read-out: Half maximal inhibitory concentration (IC50), Cancer Cell Line HT1080
Compound,IC50 (NCI-H522 cells; [6]),IC50 (HT-1080 cells; [7]),IC50 (MDA-MB-231 cells; [8]),IC50 (NCI-H522 cells; [9]),IC50 [2],IC50 (NCI-H522 RV-GFP cells),IC50 (HT-1080 cells; [10]),IC50 (NARF2 cells),IC50 (MDA-MB-231 cells; [11]),other results
Cc1onc(C(=O)N2CCN(C(c3ccc(Cl)cc3)c3ccc(Cl)cc3)CC2)c1[N+](=O)[O-] [ML210],–,–,–,–,–,–,–,–,–,competition of PPd-labelled protein bands by known ferroptosis inducers [1]: compete out the same protein bands
"CCN(CC)c1ccc2cc(C(=O)NC3CCC(c4csc(Br)n4)=C3C)c(=O)oc2c1 (stereo not drawn) [NPa, N-(3-(2-Bromothiazol-4-yl)-2-methylcyclopent-2-en-1-yl)-7-(diethylamino)-2-oxo-2H-chromene-3-carboxamide]",> 20 µM,> 20 µM,> 20 µM,–,–,–,–,–,–,–
"CC1=C(c2csc(Br)n2)CCC1NC(=O)CCCC[C@@H]1SC[C@@H]2NC(=O)N[C@@H]21 (stereo partly drawn) [NPb, N-(3-(2-Bromothiazol-4-yl)-2-methylcyclopent-2-en-1-yl)-5-((3aS,4S,6aR)-2-oxohexahydro-1H-thieno[3,4-d]imidazol-4-yl)pentanamide]",> 20 µM,> 20 µM,> 20 µM,–,–,–,–,–,–,–
"C#CCO/N=C1\CC(c2csc(Br)n2)=C(C)C1O (stereo not drawn) [NPd, 4-(2-Bromothiazol-4-yl)-2-hydroxy-3-methylcyclopent-3-en-1-one O-prop-2-yn-1-yl oxime]",> 20 µM,> 20 µM,> 20 µM,–,–,–,–,–,–,–
"C#CCCC(=O)Nc1ccc(C(=O)c2ccc(NC(=O)CO/N=C3\CC(c4csc(Br)n4)=C(C)C3O)cc2)cc1 (stereo not drawn) [NPe, (E)-N-(4-(4-(2-(((4-(2-Bromothiazol-4-yl)-2-hydroxy-3-methylcyclopent-3-en-1-ylidene)amino)oxy)acetamido)benzoyl)phenyl)pent-4-ynamide]",> 20 µM,> 20 µM,> 20 µM,–,–,–,–,–,–,–
"C#Cc1nc(C2=C(C)C(NC(=O)c3cc4ccc(N(CC)CC)cc4oc3=O)CC2)cs1 (stereo not drawn) [PPa, 7-(Diethylamino)-N-(3-(2-ethynylthiazol-4-yl)-2-methylcyclopent-2-en-1-yl)-2-oxo-2H-chromene-3-carboxamide]",4.56 ± 1.43 µM,4.58 ± 0.87 µM,1.2 ± 1.03 µM,–,–,–,–,–,–,"IC50 (NCI-H522 cells; cell line not given, value matches NCI-H522 of Table 3, read-out: IC50 (moderate cytotoxicity of PPa)): 4.56 ± 1.43 µM"
"C#Cc1nc(C2=C(C)C(NC(=O)CCCC[C@@H]3SC[C@@H]4NC(=O)N[C@@H]43)CC2)cs1 (stereo partly drawn) [PPb, N-(3-(2-Ethynylthiazol-4-yl)-2-methylcyclopent-2-en-1-yl)-5-((3aS,4S,6aR)-2-oxohexahydro-1H-thieno[3,4-d]imidazol-4-yl)pentanamide]",17.9 ± 3.98 µM,7.91 ± 1.9 µM,> 20 µM,–,–,–,–,–,–,"IC50 (NCI-H522 cells; NCI-H522, unit inferred, read-out: IC50 on NCI-H522 cell line): 17.9 ± 3.98 µM; activity relative to CETZOLE 1 (NCI-H522 cells; NCI-H522 cell line): five-fold less active"
"CC1=C(c2csc(Br)n2)CCC1O (stereo not drawn) [compound 13, 3-(2-Bromothiazol-4-yl)-2-methylcyclopent-2-en-1-ol]",> 20 µM,> 20 µM,> 20 µM,–,–,–,–,–,–,–
"C#Cc1nc(C2=C(C)C(=O)/C(=N/O)C2)cs1 [compound 14, (E)-3-(2-Ethynylthiazol-4-yl)-5-(hydroxyimino)-2-methylcyclopent-2-en-1-one]",–,–,–,> 20 µM,> 20 µM,> 20 µM,5.29 ± 2.6 µM,> 20 µM,8.05 ± 0.63 µM,IC50 [3]: > 20 µM
C#Cc1nc(C2=C(C)C(=O)/C(=N/OC(C)=O)C2)cs1 [compound 18],–,–,–,11 ± 1.53 µM,> 20 µM,> 20 µM,> 20 µM,> 20 µM,18.5 ± 1.7 µM,IC50 [3]: > 20 µM
"C#Cc1nc(C2=C(C)C(O)/C(=N/O)C2)cs1 (stereo not drawn) [compound 19, (E)-4-(2-Ethynylthiazol-4-yl)-2-hydroxy-3-methylcyclopent-3-en-1-one oxime]",–,–,–,4.68 ± 1.03 µM,> 20 µM,5.55 ± 0.01 µM,5.77 ± 0.67 µM,> 20 µM,6.57 ± 0.5 µM,–
"C#Cc1nc(C2=C(C)C(OC(=O)CC)/C(=N/OC(=O)CC)C2)cs1 (stereo not drawn) [compound 20b, (E)-3-(2-Ethynylthiazol-4-yl)-2-methyl-5-((propionyloxy)imino)cyclopent-2-en-1-yl propionate]",–,–,–,0.12 ± 0.06 µM,2.06 ± 0.54 µM,0.59 ± 0.22 µM,0.15 ± 0.02 µM,13.4 ± 3.3 µM,0.18 ± 0.03 µM,IC50 (NCI-H522 cells; [12]): 0.12 ± 0.06 µM; IC50 (HT-1080 cells; [13]): 0.15 ± 0.02 µM; IC50 (WI38 cells): 2.52 ± 0.92 µM; IC50 [4]: 0.28 ± 0.04 µM; cell death at a single concentration [5]: killed only the cancer cell lines NCI-H522 and HT-1080
"C#Cc1nc(C2=C(C)C(OC(=O)CCC)/C(=N/OC(=O)CCC)C2)cs1 (stereo not drawn) [compound 20c, (E)-5-((Butyryloxy)imino)-3-(2-ethynylthiazol-4-yl)-2-methylcyclopent-2-en-1-yl butyrate]",–,–,–,0.13 ± 0.09 µM,1.93 ± 0.8 µM,0.28 ± 0.13 µM,0.19 ± 0.09 µM,5.95 ± 1.8 µM,0.83 ± 0.15 µM,IC50 (NCI-H522 cells; [12]): 0.13 ± 0.09 µM; IC50 (HT-1080 cells; [13]): 0.19 ± 0.09 µM; IC50 (WI38 cells): 1.19 ± 0.3 µM; IC50 [4]: 0.79 ± 0.04 µM; cell death at a single concentration [5]: killed only the cancer cell lines NCI-H522 and HT-1080
"C#Cc1nc(C2=C(C)C(OC(=O)CCCCCCC)/C(=N/OC(=O)CCCCCCC)C2)cs1 (stereo not drawn) [compound 20e, (E)-3-(2-Ethynylthiazol-4-yl)-2-methyl-5-((octanoyloxy)imino)cyclopent-2-en-1-yl octanoate]",–,–,–,> 20 µM,> 20 µM,> 20 µM,> 20 µM,> 20 µM,19.1 ± 2.8 µM,IC50 [3]: > 20 µM
"C#Cc1nc(C2=C(C)C(O)/C(=N\OCc3ccccc3)C2)cs1 (stereo not drawn) [compound 21, (Z)-4-(2-Ethynylthiazol-4-yl)-2-hydroxy-3-methylcyclopent-3-en-1-one O-benzyl oxime]",–,–,–,1.18 ± 0.8 µM,2.17 ± 1.5 µM,3.02 ± 1.7 µM,0.93 ± 0.12 µM,> 20 µM,13.4 ± 5.3 µM,–
O=C(O)c1cc(/N=N/c2ccc(S(=O)(=O)Nc3ccccn3)cc2)ccc1O [sulfasalazine],–,–,–,–,–,–,–,–,–,competition of PPd-labelled protein bands by known ferroptosis inducers [1]: did not show any significant competition
